Consider 15 molecules from PubChem BioAssay (NCI).

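Protocol summary: plate cells (96-well), add compound at 5 concentrations, incubate 48 h, interpolate endpoints linearly. GI50 is the concentration that inhibits growth by half. At the TGI there is no net growth.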

Experiment in all cases: inhibition of tumour cell growth, NCI panel, 48 h
Assay [1] has as its system NCI-H23 lung.
The test system of assay [2] is U251 CNS.
Assay [3] relates to KM12 colon.
Assay [4] has as its system SN12C renal.
In assay [5] the test system is 786-0 renal.
In assay [6] the test system is SK-MEL-5 melanoma.
Assay [7] relates to A549 NSCLC.
Assay [8] relates to SK-MEL-28 melanoma.
For assay [9], the system named is SF-539 CNS.
Assay [10] relates to COLO 205 colon.

For `CC(=O)OCCOCNC(=S)N/N=C(\C)c1cnc2ccccc2n1`, the TGI in assay [1], in assay [2], in assay [3], in assay [4], in assay [5] and in [6] was greater than 100 µM in each case. Further, the TGI was greater than 100 µM in assay [7], greater than 100 µM in assay [8], greater than 100 µM in assay [9] and 36.9 µM in assay [10].
For the molecule `COc1c(C(=O)O)oc2c(OC)cccc12`, the TGI in assay [1], in [2], in assay [3], in assay [4], in [5] and in assay [6] was greater than 100 µM throughout. For the same molecule, the TGI in assay [7], in assay [8], in assay [9] and in [10] was greater than 100 µM in each case.
Regarding `CCOC(=O)c1[nH]c(-c2ccc(Cl)cc2)cc1-c1cccnc1`, the GI50 in assay [1] is 2330 nM; in [2], 622 nM; in assay [3], 595 nM; in [4] it was 1440 nM; in assay [5], 440 nM; in assay [6] it was 401 nM. Also, the GI50 in assay [7] is 812 nM; in assay [8], 982 nM; in assay [9] it was 423 nM; in assay [10], 398 nM. Further, the TGI in assay [1] is greater than 100 µM; in assay [2], greater than 100 µM; in assay [3] it was greater than 100 µM; in assay [4], greater than 100 µM; in assay [5] it was 8.58 µM; in [6] it was greater than 100 µM. Further, the TGI in assay [7] is greater than 100 µM; in assay [8], greater than 100 µM; in assay [9] it was 7.14 µM; in [10], 7.49 µM.
`COc1cc(/C=C2\CC3C4CC=C5C[C@@H](OC(C)=O)CC[C@]5(C)C4CC[C@]3(C)C2=O)ccc1OCCCn1ccnc1` (stereo not given in full): the GI50 in assay [1] was 8350 nM; in assay [2], 8930 nM; in [3] it was 8750 nM; in assay [4] it was 8990 nM; in [5], 8870 nM; in assay [6], 9390 nM. Besides, the GI50 was 13000 nM in assay [7], 16000 nM in [8], 6890 nM in assay [9] and 20700 nM in assay [10]. The TGI in [1] was 17.7 µM; in assay [2], 15.9 µM; in assay [3], 16.2 µM; in assay [4] it was 16.6 µM; in [5], 16 µM; in assay [6], 21.5 µM. Also, the TGI in assay [7] is 33.9 µM; in assay [8] it was greater than 50 µM; in [9], 14.2 µM; in assay [10], greater than 50 µM.
For `O=c1[nH]c(=O)n(C2OC(CO)C(O)C2O)c2c1CCCC2` (stereo not given), the TGI in assay [1], in assay [2], in assay [3], in assay [4], in assay [5] and in [6] was greater than 100 µM each time. In addition, the TGI in assay [7], in [8], in [9] and in [10] was greater than 100 µM throughout.
As for `OCC1OC(n2ccc3c(NO)ncnc32)C(O)C1O` (stereo not given), the GI50 is 214 nM in assay [1]; 168 nM in assay [2]; 234 nM in assay [3]; 212 nM in assay [4]; 239 nM in assay [5]; 171 nM in assay [6]. The GI50 in assay [7] was 87 nM; in assay [8], 231 nM; in assay [9], 288 nM; in [10], 114 nM. Also, the TGI in assay [1] is 1.17 µM; in [2] it was greater than 20.2 µM; in [3], 1.12 µM; in assay [4], 1.61 µM; in [5], 1.1 µM; in assay [6] it was 0.325 µM. Moreover, the TGI in assay [7] came to 3.58 µM; in assay [8], 0.873 µM; in assay [9], 1.29 µM; in assay [10], 0.617 µM.
Consider `C=C1C(=O)OC2CC1C(O)C/C(C)=C/CC/C(C)=C/C(O)CC2C` (stereo not given), for which the TGI in assay [1] was determined as 7.8 µM; in assay [2], 16.8 µM; in [3] it was 18.3 µM; in assay [4], 4.83 µM; in assay [5] it was 3.99 µM; in assay [6], 15.4 µM. The TGI is 28.1 µM in assay [7], 9.8 µM in assay [8], 6.55 µM in assay [9] and 2.94 µM in assay [10].
On to `N#Cc1cnc2cc(OC[C@@H](O)CO)c(NC(=O)CC3CSSC3)cc2c1Nc1ccc(OCc2cccc(F)c2)c(Cl)c1`, for which the GI50 is 614 nM in [1]; 777 nM in assay [2]; 112 nM in assay [3]; 144 nM in assay [4]; 1380 nM in assay [5]; 743 nM in [6]. For the same molecule, the GI50 in [7] is 842 nM; in assay [8], 63.2 nM; in assay [9], 725 nM; in assay [10] it was 813 nM. Also, the TGI came to 1.51 µM in assay [1]; 1.59 µM in assay [2]; 0.251 µM in assay [3]; 0.49 µM in assay [4]; 4.57 µM in assay [5]; 1.43 µM in [6]. In addition, the TGI in assay [7] amounted to 1.72 µM; in assay [8], 0.136 µM; in assay [9], 1.47 µM; in assay [10] it was 1.63 µM.
As to `CN1CCCN(C)C1c1cc([N+](=O)[O-])ccc1O`, the TGI in [1] was greater than 100 µM; in assay [2], greater than 100 µM; in [3], greater than 100 µM; in assay [4], 85.7 µM; in [5] it was greater than 100 µM; in [6], 48.4 µM. The TGI in assay [7] is greater than 100 µM; in [8] it was 82.3 µM; in [9] it was 74.9 µM; in [10] it was greater than 100 µM.
In the case of `Cn1ncc2c(N)nc(N3CCCCC3)nc21`, the GI50 is 28400 nM in assay [1]; 30700 nM in assay [2]; 26200 nM in [3]; 28500 nM in assay [4]; 69300 nM in [5]; 18400 nM in [6]. Further, the GI50 in [7] is 66100 nM; in assay [8], 24100 nM; in assay [9], 25400 nM; in assay [10], 19700 nM. Also, the TGI in assay [1] is greater than 100 µM; in [2] it was greater than 100 µM; in assay [3] it was 82.8 µM; in assay [4], 75.2 µM; in assay [5], greater than 100 µM; in assay [6], 33.8 µM. Further, the TGI in [7] is greater than 100 µM; in [8] it was greater than 100 µM; in assay [9], greater than 100 µM; in assay [10], 51.4 µM.
On to `CN(C)C(N)=NC#N`, for which the TGI in assay [1], in assay [2], in assay [3], in [4], in [5] and in assay [6] was greater than 100 µM each time. Moreover, the TGI in assay [7], in assay [8], in assay [9] and in [10] was greater than 100 µM throughout.
Consider `Nc1ccc2c(c1)NCCN2`, for which the TGI in assay [1] is greater than 100 µM; in assay [2], greater than 100 µM; in [3], greater than 100 µM; in [4], greater than 100 µM; in assay [5], greater than 100 µM; in assay [6], 46.8 µM. For the same molecule, the TGI in [7], in assay [8], in assay [9] and in [10] was greater than 100 µM each time.
Consider `COc1cccc(NC(=O)CC(=O)N2N=C(N(CCC#N)c3ccccc3C)CC2c2ccccc2)c1` (stereo not given), for which the TGI in assay [1], in [2], in assay [3], in [4], in assay [5] and in assay [6] was greater than 100 µM throughout. Further, the TGI in [7], in assay [8], in [9] and in assay [10] was greater than 100 µM in each case.
Take `Nc1ccc(S(=O)(=O)C23CC4CC(CC(C4)C2)C3)cc1`: the TGI in [1], in assay [2], in assay [3], in [4], in assay [5] and in [6] was greater than 100 µM in each case. In addition, the TGI in [7], in assay [8], in assay [9] and in assay [10] was greater than 100 µM in each case.
As for `CCOC(=O)C(=Cc1ccccc1[N+](=O)[O-])C(=O)OCC`, the GI50 in assay [1] was 3350 nM; in assay [2] it was 3650 nM; in [3], 2720 nM; in assay [4], 2850 nM; in [5] it was 3850 nM; in [6], 1330 nM. Further, the GI50 in [7] was 4050 nM; in [8] it was 2930 nM; in assay [9], 3550 nM; in assay [10] it was 2140 nM. Moreover, the TGI in assay [1] stood at 13.9 µM; in assay [2], 13.1 µM; in [3] it was 10.3 µM; in assay [4], 11.3 µM; in assay [5] it was 11.8 µM; in assay [6], 2.66 µM. For the same molecule, the TGI in assay [7] worked out at 17.5 µM; in assay [8] it was 9.59 µM; in assay [9], 9.32 µM; in assay [10], 3.85 µM.
